One series has as its system HepG2 cells. Briefly: NRU assay (lysosomal activity). The settings on record: Homo sapiens, HepG2, 72 h, read-out: inhibited concentration (IC50), NRU. The series is classed as cell-based. The protocol: The cytotoxic potential of the veterinary drug and its mixtures with cannabidiol at two non-toxic concentrations: 1.56 and 3.15 µg/mL, on the human SH-SY5Y, HepG2 and HEK 293 cell lines was assessed by decreased viability of the cells within five biochemical endpoints: mitochondrial activity and lysosomal activity (MTT assays, reducing the tetrazolium dye MTT 3-(4,5-dimethylthiazol-2-yl)-2,5-diphenyltetrazolium bromide and neutral red uptake (NRU) assays), total protein content (TPC assay), cellular membrane integrity (leakage lactate dehydrogenase (LDH) assay) and DNA synthesis (the bromodeoxyuridine/5-bromo-2′-deoxyuridine incorporation into the DNA cells (BrdU) assay) after 72 h exposition. […]
The human neuroblastoma (SH-SY5H), hepatoma (HepG2) and kidney cells (HEK 293) cells were purchased from the American Type Culture Collection: ATCCCRL-2266,ATCC HB-8065 and ATCC CRL-1573, respectively. […] Cytotoxicity was assessed after 72 h of exposure of the cells to the compounds. […]
This method is based on staining living cells with neutral red, which readily diffuses through the plasma membrane and accumulates in lysosomes. […] After 10 min of shaking, the absorbance of the dissolved NR was measured using a Synergy 2 Multi-Mode Microplate Reader (BioTek® Instruments Inc., Winooski, VT, USA) at 540 nm using a blank as a reference. […]

Another series has as its system MDA-MB-231. More on the design: method as in PMID 28399915. The settings on record: MDA-MB-231, dose 6.25–100 µg/mL, treatment period 12–48 h; cited from earlier work.

This passage reports IC50 and cell viability results from paper PMC11676896, “Protective Action of Cannabidiol on Tiamulin Toxicity in Humans—In Vitro Study” (International Journal of Molecular Sciences, 2024).

Structures can show the parent of a compound that is named as a salt.

Turning to `C=C[C@]1(C)C[C@@H](OC(=O)CSCCN(CC)CC)[C@]2(C)[C@H](C)CC[C@]3(CCC(=O)[C@H]32)[C@@H](C)[C@@H]1O` [T, tiamulin fumarate], the IC50 with HepG2 cells was 34.7 ± 1 µg/mL. The cell viability result in the series on MDA-MB-231 was “cell viability decreased with increasing dose”.
